What all share (assay): FLIPR membrane potential
Holding throughout (format): cell-based
What all share (settings): concentration used for PAM testing

The target in assay [1] is human α6β2γ2s GABAA receptor (Homo sapiens, UniProt P18507+P47870+Q16445).
Assay [2] has as its target human α4β2δ GABAA receptor (Homo sapiens, UniProt O14764+P47870+P48169).
Assay [3] addresses human α6β2δ GABAA receptor (Homo sapiens, UniProt O14764+P47870+Q16445).
Assay [4] deals with T1, human α1β2δ GABAA receptor (Homo sapiens, UniProt O14764+P14867+P47870).
T1 sequence (P14867 28-456): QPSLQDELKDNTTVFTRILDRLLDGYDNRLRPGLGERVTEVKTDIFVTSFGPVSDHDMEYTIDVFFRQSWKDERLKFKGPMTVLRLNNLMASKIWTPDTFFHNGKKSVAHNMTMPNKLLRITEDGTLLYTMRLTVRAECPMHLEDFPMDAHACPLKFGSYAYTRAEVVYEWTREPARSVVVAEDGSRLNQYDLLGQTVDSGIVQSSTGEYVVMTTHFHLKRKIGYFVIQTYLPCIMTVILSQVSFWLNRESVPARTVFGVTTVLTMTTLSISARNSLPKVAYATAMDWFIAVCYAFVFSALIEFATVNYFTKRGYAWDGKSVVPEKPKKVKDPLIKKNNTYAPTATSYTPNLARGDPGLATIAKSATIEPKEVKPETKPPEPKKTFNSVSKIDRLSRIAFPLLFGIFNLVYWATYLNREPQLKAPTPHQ
T1 sequence (P47870 25-512 limits assumed): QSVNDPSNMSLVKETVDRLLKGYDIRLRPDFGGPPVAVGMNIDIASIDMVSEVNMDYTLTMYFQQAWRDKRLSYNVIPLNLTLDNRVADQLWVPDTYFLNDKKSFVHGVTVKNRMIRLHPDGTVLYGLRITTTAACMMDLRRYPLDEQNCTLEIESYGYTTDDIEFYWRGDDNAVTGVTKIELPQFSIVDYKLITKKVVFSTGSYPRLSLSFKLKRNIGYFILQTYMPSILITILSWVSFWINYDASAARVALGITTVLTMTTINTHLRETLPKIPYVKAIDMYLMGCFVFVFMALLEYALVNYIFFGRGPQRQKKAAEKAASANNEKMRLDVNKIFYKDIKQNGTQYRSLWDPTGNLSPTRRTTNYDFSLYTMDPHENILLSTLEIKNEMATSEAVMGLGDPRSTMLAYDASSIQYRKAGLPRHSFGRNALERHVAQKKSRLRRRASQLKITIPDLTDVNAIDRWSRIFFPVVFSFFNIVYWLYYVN
T1 sequence (O14764 17-452 limits assumed): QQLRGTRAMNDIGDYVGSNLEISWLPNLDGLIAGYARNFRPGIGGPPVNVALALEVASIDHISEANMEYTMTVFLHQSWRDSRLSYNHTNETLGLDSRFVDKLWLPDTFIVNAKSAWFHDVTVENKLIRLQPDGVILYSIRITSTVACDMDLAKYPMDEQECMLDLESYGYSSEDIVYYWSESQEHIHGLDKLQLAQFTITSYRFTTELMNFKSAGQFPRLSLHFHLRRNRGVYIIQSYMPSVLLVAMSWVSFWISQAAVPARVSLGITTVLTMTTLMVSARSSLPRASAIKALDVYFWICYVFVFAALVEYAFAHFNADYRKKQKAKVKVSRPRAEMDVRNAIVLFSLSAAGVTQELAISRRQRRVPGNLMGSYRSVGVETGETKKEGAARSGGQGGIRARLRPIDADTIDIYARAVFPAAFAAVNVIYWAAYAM

Sequence of human α4β2δ GABAA receptor (P48169 36-554, one chain of several): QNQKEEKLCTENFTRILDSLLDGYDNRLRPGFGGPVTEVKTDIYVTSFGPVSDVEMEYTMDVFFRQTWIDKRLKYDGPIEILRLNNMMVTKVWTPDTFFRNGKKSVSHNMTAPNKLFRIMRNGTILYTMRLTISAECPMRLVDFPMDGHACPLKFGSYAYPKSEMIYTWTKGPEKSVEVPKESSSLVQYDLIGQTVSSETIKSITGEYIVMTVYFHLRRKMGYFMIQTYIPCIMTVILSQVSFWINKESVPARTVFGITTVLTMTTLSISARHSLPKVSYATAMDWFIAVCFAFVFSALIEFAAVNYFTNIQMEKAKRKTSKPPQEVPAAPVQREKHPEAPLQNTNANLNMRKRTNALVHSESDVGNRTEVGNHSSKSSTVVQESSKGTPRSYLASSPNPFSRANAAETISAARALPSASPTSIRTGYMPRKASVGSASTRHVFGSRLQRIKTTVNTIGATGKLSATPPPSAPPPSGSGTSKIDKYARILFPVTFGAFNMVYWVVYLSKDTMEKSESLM
Sequence of human α6β2δ GABAA receptor (Q16445 20-453, one chain of several): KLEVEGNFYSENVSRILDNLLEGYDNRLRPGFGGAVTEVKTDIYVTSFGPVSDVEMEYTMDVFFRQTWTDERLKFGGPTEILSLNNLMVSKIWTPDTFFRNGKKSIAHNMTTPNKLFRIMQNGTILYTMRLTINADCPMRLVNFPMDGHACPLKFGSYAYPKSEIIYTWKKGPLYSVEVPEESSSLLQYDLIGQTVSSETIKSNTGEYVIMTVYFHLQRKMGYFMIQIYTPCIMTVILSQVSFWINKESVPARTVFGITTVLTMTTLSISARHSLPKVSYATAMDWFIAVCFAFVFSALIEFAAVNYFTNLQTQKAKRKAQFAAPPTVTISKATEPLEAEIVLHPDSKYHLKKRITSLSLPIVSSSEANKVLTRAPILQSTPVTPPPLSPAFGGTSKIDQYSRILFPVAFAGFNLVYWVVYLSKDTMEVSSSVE
Sequence of human α6β2γ2s GABAA receptor (Q16445 20-453, one chain of several): as above
Sequence of human α6β2γ2s GABAA receptor (P18507 40-467 isoform P18507-1 limits assumed, one chain of several): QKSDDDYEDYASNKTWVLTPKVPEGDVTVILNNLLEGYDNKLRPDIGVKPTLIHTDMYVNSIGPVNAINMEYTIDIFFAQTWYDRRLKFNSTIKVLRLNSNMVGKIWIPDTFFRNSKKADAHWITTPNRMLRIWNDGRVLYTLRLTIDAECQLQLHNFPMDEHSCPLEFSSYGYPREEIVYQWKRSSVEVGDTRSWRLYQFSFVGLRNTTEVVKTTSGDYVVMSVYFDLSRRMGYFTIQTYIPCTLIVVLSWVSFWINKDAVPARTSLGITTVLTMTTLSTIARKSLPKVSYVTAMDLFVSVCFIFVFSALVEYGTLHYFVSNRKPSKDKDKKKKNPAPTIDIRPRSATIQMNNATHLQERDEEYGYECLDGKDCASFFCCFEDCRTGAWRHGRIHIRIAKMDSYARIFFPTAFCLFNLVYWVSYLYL

Regarding `NCCCC(=O)O` [GABA, γ-Aminobutyric acid], the “GABA EC20” value in assay [1] is 0.1 to 0.2 µM; in assay [2], 0.08 µM; in assay [3], 0.05 µM; in assay [4] it was 1.6 to 2.0 µM.

The record behind these values is PMC6648289 (ACS Omega, 2019).
